The target of data set [1] is T1, LXR alpha (Homo sapiens, UniProt Q13133).
T1 construct: human LXR alpha (aa 164 to 447); unnamed tag ('tagged versions'); made in house; host or cells: E. coli BL21 (pLysS)
T1 sequence (Q13133 164-447): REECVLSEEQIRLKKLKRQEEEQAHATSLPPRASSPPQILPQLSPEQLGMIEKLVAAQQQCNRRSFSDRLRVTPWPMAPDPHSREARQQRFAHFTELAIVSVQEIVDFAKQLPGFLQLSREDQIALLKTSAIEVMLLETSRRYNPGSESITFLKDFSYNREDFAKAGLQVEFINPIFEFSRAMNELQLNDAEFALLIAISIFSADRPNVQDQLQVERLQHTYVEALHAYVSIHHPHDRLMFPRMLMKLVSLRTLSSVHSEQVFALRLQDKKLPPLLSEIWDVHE
The data set is described as follows: Radioligand binding assay (SPA), LXR alpha LBD. Conditions: LXRα-LBD, read-out: LXRalpha Binding IC50. The method, then: (§1) The following tests were carried out in order to determine the activity of the compounds of the present invention. Background information on the performed assays can be found in: Nichols J S et al. “Development of a scintillation proximity assay for peroxisome proliferator-activated receptor gamma ligand binding domain”, Anal Biochem. 1998, 257: 112-119.
(§2) Mammalian expression vectors were constructed to express full-length human LXR alpha and LXR beta. Bacterial expression vectors were constructed to produce tagged versions of the ligand binding domains (LBD) of human LXR alpha (aa 164 to 447) and human LXR beta (aa 155 to 460). To accomplish this, the portions of the sequences encoding the LBDs were amplified from the full-length clones by PCR and then subcloned into the plasmid vectors. Final clones were verified by DNA sequence analysis (Willy et al., Genes Dev. 1995, 9:1033-45; Song et al., Proc Natl Acad Sci USA. 1994, 91:10809-13).
(§3) Induction, expression, and purification of LBD proteins were performed in E. coli strain BL21 (pLysS) cells by standard methods (Ref: Current Protocols in Molecular Biology, Wiley Press, edited by Ausubel et al).
(§4) Radioligand Binding Assay
(§5) LXR alpha and LXR beta receptor binding were assayed in buffer consisting of 50 mM HEPES, pH 7.4, 10 mM NaCl, 5 mM MgCl2. For each 96-well reaction, 500 ng of LXRα-LBD or 700 ng of LXR beta-LBD proteins were bound to 80 μg or 40 μg SPA beads respectively, in a final volume of 50 μl by shaking. The resulting slurry was incubated for 1 h at RT and centrifuged for 2 min at 1300×g. The supernatant containing unbound protein was removed, and the semi-dry pellet containing the receptor-coated beads was re-suspended in 50 μl of buffer. […] All binding assays were performed in 96-well plates and the amount of bound ligand was measured on a Packard TopCount using OptiPlates (Packard). Dose response curves were measured within a range of concentration from 10^−10 M to 10^−4 M.

Data set [2] has as its target T2, LXR beta (Homo sapiens, UniProt P55055).
T2 construct: human LXR beta (aa 155 to 460); unnamed tag ('tagged versions'); made in house; host or cells: E. coli BL21 (pLysS)
T2 sequence (P55055 155-460): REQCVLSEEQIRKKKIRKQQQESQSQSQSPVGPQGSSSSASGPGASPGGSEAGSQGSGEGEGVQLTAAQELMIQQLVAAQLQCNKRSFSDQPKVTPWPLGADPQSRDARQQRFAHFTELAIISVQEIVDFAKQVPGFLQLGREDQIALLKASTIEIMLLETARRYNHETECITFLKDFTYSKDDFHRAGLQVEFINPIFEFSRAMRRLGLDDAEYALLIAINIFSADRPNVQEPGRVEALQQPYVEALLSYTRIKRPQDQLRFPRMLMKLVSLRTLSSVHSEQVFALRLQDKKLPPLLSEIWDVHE
The data set is described as follows: Radioligand binding assay (SPA), LXR beta LBD. The following applies: read-out: LXRbeta Binding IC50. The method, then: as §1, §2, §3, §4, §5

Regarding `COc1cccc(S(=O)(=O)N2CC[C@H](c3ccccc3)[C@H](C(=O)N3CCN(c4cc(C)ccc4C)CC3)C2)c1` (relative stereo) [Example 42, Cis-[4-(2,5-Dimethyl-phenyl)-piperazin-1-yl]-[-1-(3-methoxy-benzenesulfonyl)-4-phenyl-piperidin-3-yl]-methanone], the melting point – broadly, the temperature of the solid-liquid transition – was determined as 192 °C.
With `Cc1ccc(Cl)cc1N1CCN(C(=O)[C@@H]2CN(S(C)(=O)=O)CC[C@@H]2c2ccc(F)cc2F)CC1` (single isomer, unassigned) [Example 87, [4-(5-Chloro-2-methyl-phenyl)-piperazin-1-yl]-[(3S,4S) or (3R,4R)-4-(2,4-difluoro-phenyl)-1-methanesulfonyl-piperidin-3-yl]-methanone], the values for the IC50 in data set [1] and in data set [2] were 15.6 µM and 2.8 µM, respectively.
Taken in the same sequence, the figures for `Cc1cc(F)ccc1N1CCN(S(=O)(=O)c2cccc(Cl)c2)CC1C(=O)N1CCN(c2cc(Cl)ccc2Cl)CC1` (stereo not shown) [Example 4, [4-(3-Chloro-benzenesulfonyl)-1-(4-fluoro-2-methyl-phenyl)-piperazin-2-yl]-[4-(2,5-dichloro-phenyl)-piperazin-1-yl]-methanone] were 18 µM and 0.72 µM.
Taken in the same sequence, the figures for `COc1cccc(S(=O)(=O)N2CCN(c3ccccc3)C(C(=O)N3CCN(c4cc(C)ccc4C)CC3)C2)c1` (stereo not shown) [Example 8, [4-(2,5-Dimethyl-phenyl)-piperazin-1-yl]-[4-(3-methoxy-benzenesulfonyl)-1-phenyl-piperazin-2-yl]-methanone] were 4.1 µM and 0.77 µM.

The record behind these values is US8288541B2, “Piperazine amide derivatives” (Hoffmann-La Roche Inc., priority 2007, dated 2012).
